System: Key Broadleaf Weed and Crop Species
Test: Post-emergent Test II herbicidal activity (Table 5)
Format: in vivo
Details: post-emergence, 336 h; ABUTH: velvetleaf (Abutilon theophrasti); 70 g ai/ha; post-emergent; 14 days after application; read-out: Visual Growth Reduction (%) 14 Days After Application ABUTH
Procedure, shortened: (§1)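 Greenhouse post-emergent assay: seedlings (first/second true leaf) in Metro-Mix 360 were sprayed at 187 L/ha at a top rate plus twofold dilutions down to 1/16×; solvent-blank controls were included. Percent visual injury was read at 14 d.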
In the case of `Nc1c(Cl)c(C(=O)O)nc(-c2ccc(I)cc2)c1Cl` [Compound 173], the pest or weed control at 70 g/ha is reported as 60 to 74%.

Same assay, conditions: post-emergence, 336 h; ABUTH: velvetleaf (Abutilon theophrasti); 140 g ai/ha; post-emergent; 14 days after application; read-out: Visual Growth Reduction (%) 14 Days After Application ABUTH
Compound `Nc1c(Cl)c(C(=O)O)nc(-c2ccc(I)cc2)c1Cl` [Compound 173] has a pest or weed control at 140 g/ha of 85 to 94%.

Same assay, conditions: post-emergence, 336 h; AMARE: redroot pigweed (Amaranthus retroflexus); 70 g ai/ha; post-emergent; 14 days after application; read-out: Visual Growth Reduction (%) 14 Days After Application AMARE
With `Nc1c(Cl)c(C(=O)O)nc(-c2ccc(I)cc2)c1Cl` [Compound 173] the pest or weed control at 70 g/ha was 85 to 94%.

Same assay, conditions: post-emergence, 336 h; AMARE: redroot pigweed (Amaranthus retroflexus); 140 g ai/ha; post-emergent; 14 days after application; read-out: Visual Growth Reduction (%) 14 Days After Application AMARE
In the case of `Nc1c(Cl)c(C(=O)O)nc(-c2ccc(I)cc2)c1Cl` [Compound 173], the pest or weed control at 140 g/ha is reported as 95 to 100%.

Same assay, conditions: post-emergence, 336 h; BRSNN: oilseed-rape, canola (Brassica napus); 70 g ai/ha; post-emergent; 14 days after application; read-out: Visual Growth Reduction (%) 14 Days After Application BRSNN
In the case of `Nc1c(Cl)c(C(=O)O)nc(-c2ccc(I)cc2)c1Cl` [Compound 173], the pest or weed control at 70 g/ha is reported as 85 to 94%.

Same assay, conditions: post-emergence, 336 h; BRSNN: oilseed-rape, canola (Brassica napus); 140 g ai/ha; post-emergent; 14 days after application; read-out: Visual Growth Reduction (%) 14 Days After Application BRSNN
For `Nc1c(Cl)c(C(=O)O)nc(-c2ccc(I)cc2)c1Cl` [Compound 173], the pest or weed control at 140 g/ha was 85 to 94%.

Same assay, conditions: post-emergence, 336 h; CHEAL: lambsquarters (Chenopodium album); 70 g ai/ha; post-emergent; 14 days after application; read-out: Visual Growth Reduction (%) 14 Days After Application CHEAL
`Nc1c(Cl)c(C(=O)O)nc(-c2ccc(I)cc2)c1Cl` [Compound 173] showed a pest or weed control at 70 g/ha of 85 to 94%.

Same assay, conditions: post-emergence, 336 h; CHEAL: lambsquarters (Chenopodium album); 140 g ai/ha; post-emergent; 14 days after application; read-out: Visual Growth Reduction (%) 14 Days After Application CHEAL
`Nc1c(Cl)c(C(=O)O)nc(-c2ccc(I)cc2)c1Cl` [Compound 173] gave a pest or weed control at 140 g/ha of 85 to 94%.

Same assay, conditions: post-emergence, 336 h; EPHHL: wild poinsettia (Euphorbia heterophylla); 70 g ai/ha; post-emergent; 14 days after application; read-out: Visual Growth Reduction (%) 14 Days After Application EPHHL
In the case of `Nc1c(Cl)c(C(=O)O)nc(-c2ccc(I)cc2)c1Cl` [Compound 173], the pest or weed control at 70 g/ha is reported as 0 to 29%.

Same assay, conditions: post-emergence, 336 h; EPHHL: wild poinsettia (Euphorbia heterophylla); 140 g ai/ha; post-emergent; 14 days after application; read-out: Visual Growth Reduction (%) 14 Days After Application EPHHL
With `Nc1c(Cl)c(C(=O)O)nc(-c2ccc(I)cc2)c1Cl` [Compound 173] the pest or weed control at 140 g/ha was 45 to 59%.

Same assay, conditions: post-emergence, 336 h; HELAN: sunflower (Helianthus annuus); 70 g ai/ha; post-emergent; 14 days after application; read-out: Visual Growth Reduction (%) 14 Days After Application HELAN
With `Nc1c(Cl)c(C(=O)O)nc(-c2ccc(I)cc2)c1Cl` [Compound 173] the pest or weed control at 70 g/ha was 95 to 100%.

Same assay, conditions: post-emergence, 336 h; HELAN: sunflower (Helianthus annuus); 140 g ai/ha; post-emergent; 14 days after application; read-out: Visual Growth Reduction (%) 14 Days After Application HELAN
Compound `Nc1c(Cl)c(C(=O)O)nc(-c2ccc(I)cc2)c1Cl` [Compound 173] has a pest or weed control at 140 g/ha of 95 to 100%.

Same assay, conditions: post-emergence, 336 h; VIOTR: wild pansy (Viola tricolor); 70 g ai/ha; post-emergent; 14 days after application; read-out: Visual Growth Reduction (%) 14 Days After Application VIOTR
Compound `Nc1c(Cl)c(C(=O)O)nc(-c2ccc(I)cc2)c1Cl` [Compound 173] has a pest or weed control at 70 g/ha of 0 to 29%.

Same assay, conditions: post-emergence, 336 h; VIOTR: wild pansy (Viola tricolor); 140 g ai/ha; post-emergent; 14 days after application; read-out: Visual Growth Reduction (%) 14 Days After Application VIOTR
Compound `Nc1c(Cl)c(C(=O)O)nc(-c2ccc(I)cc2)c1Cl` [Compound 173] has a pest or weed control at 140 g/ha of 0 to 29%.

System: Key Grass and Sedge Weeds as well as Grass Crops
Test: Post-emergent Test II herbicidal activity (Table 6)
Format: in vivo
Details: Triticum aestivum, post-emergence, 336 h, TRZSS (wheat), application rate 70 g ai/ha, read-out: Visual Growth Reduction (%) 14 Days After Application, TRZSS
Procedure, shortened: as §1
With `Nc1c(Cl)c(C(=O)O)nc(-c2ccc(I)cc2)c1Cl` [Compound 173] the pest or weed control at 70 g/ha was 60 to 74%.

Same assay, conditions: Triticum aestivum, post-emergence, 336 h, TRZSS (wheat), application rate 140 g ai/ha, read-out: Visual Growth Reduction (%) 14 Days After Application, TRZSS
In the case of `Nc1c(Cl)c(C(=O)O)nc(-c2ccc(I)cc2)c1Cl` [Compound 173], the pest or weed control at 140 g/ha is reported as 60 to 74%.

Same assay, conditions: post-emergence, 336 h, CYPES: yellow nutsedge (Cyperus esculentus), application rate 70 g ai/ha, read-out: Visual Growth Reduction (%) 14 Days After Application, CYPES
For `Nc1c(Cl)c(C(=O)O)nc(-c2ccc(I)cc2)c1Cl` [Compound 173], the pest or weed control at 70 g/ha was 95 to 100%.

Same assay, conditions: post-emergence, 336 h, CYPES: yellow nutsedge (Cyperus esculentus), application rate 140 g ai/ha, read-out: Visual Growth Reduction (%) 14 Days After Application, CYPES
`Nc1c(Cl)c(C(=O)O)nc(-c2ccc(I)cc2)c1Cl` [Compound 173] showed a pest or weed control at 140 g/ha of 95 to 100%.

Same assay, conditions: post-emergence, 336 h, DIGSA: crabgrass (Digitaria sanguinalis), application rate 70 g ai/ha, read-out: Visual Growth Reduction (%) 14 Days After Application, DIGSA
With `Nc1c(Cl)c(C(=O)O)nc(-c2ccc(I)cc2)c1Cl` [Compound 173] the pest or weed control at 70 g/ha was 60 to 74%.

Same assay, conditions: post-emergence, 336 h, DIGSA: crabgrass (Digitaria sanguinalis), application rate 140 g ai/ha, read-out: Visual Growth Reduction (%) 14 Days After Application, DIGSA
With `Nc1c(Cl)c(C(=O)O)nc(-c2ccc(I)cc2)c1Cl` [Compound 173] the pest or weed control at 140 g/ha was 75 to 84%.

Same assay, conditions: post-emergence, 336 h, ECHCG: barnyardgrass (Echinochloa crus-galli), application rate 70 g ai/ha, read-out: Visual Growth Reduction (%) 14 Days After Application, ECHCG
With `Nc1c(Cl)c(C(=O)O)nc(-c2ccc(I)cc2)c1Cl` [Compound 173] the pest or weed control at 70 g/ha was 75 to 84%.

Same assay, conditions: post-emergence, 336 h, ECHCG: barnyardgrass (Echinochloa crus-galli), application rate 140 g ai/ha, read-out: Visual Growth Reduction (%) 14 Days After Application, ECHCG
`Nc1c(Cl)c(C(=O)O)nc(-c2ccc(I)cc2)c1Cl` [Compound 173] showed a pest or weed control at 140 g/ha of 75 to 84%.

Same assay, conditions: post-emergence, 336 h, ORYSA: rice (Oryza sativa), application rate 70 g ai/ha, read-out: Visual Growth Reduction (%) 14 Days After Application, ORYSA
With `Nc1c(Cl)c(C(=O)O)nc(-c2ccc(I)cc2)c1Cl` [Compound 173] the pest or weed control at 70 g/ha was 0 to 29%.

Same assay, conditions: post-emergence, 336 h, ORYSA: rice (Oryza sativa), application rate 140 g ai/ha, read-out: Visual Growth Reduction (%) 14 Days After Application, ORYSA
`Nc1c(Cl)c(C(=O)O)nc(-c2ccc(I)cc2)c1Cl` [Compound 173] gave a pest or weed control at 140 g/ha of 0 to 29%.

Same assay, conditions: post-emergence, 336 h, SETFA: giant foxtail (Setaria faberi), application rate 70 g ai/ha, read-out: Visual Growth Reduction (%) 14 Days After Application, SETFA
In the case of `Nc1c(Cl)c(C(=O)O)nc(-c2ccc(I)cc2)c1Cl` [Compound 173], the pest or weed control at 70 g/ha is reported as 75 to 84%.

Same assay, conditions: post-emergence, 336 h, SETFA: giant foxtail (Setaria faberi), application rate 140 g ai/ha, read-out: Visual Growth Reduction (%) 14 Days After Application, SETFA
Work on `Nc1c(Cl)c(C(=O)O)nc(-c2ccc(I)cc2)c1Cl` [Compound 173] yielded a pest or weed control at 140 g/ha of 85 to 94%.

Same assay, conditions: post-emergence, 336 h, SORVU: grain sorghum (Sorghum vulgare), application rate 70 g ai/ha, read-out: Visual Growth Reduction (%) 14 Days After Application, SORVU
Work on `Nc1c(Cl)c(C(=O)O)nc(-c2ccc(I)cc2)c1Cl` [Compound 173] yielded a pest or weed control at 70 g/ha of 75 to 84%.

Same assay, conditions: post-emergence, 336 h, SORVU: grain sorghum (Sorghum vulgare), application rate 140 g ai/ha, read-out: Visual Growth Reduction (%) 14 Days After Application, SORVU
`Nc1c(Cl)c(C(=O)O)nc(-c2ccc(I)cc2)c1Cl` [Compound 173] showed a pest or weed control at 140 g/ha of 85 to 94%.

Same assay, conditions: post-emergence, 336 h, ZEAMX: maize, corn (Zea mays), application rate 70 g ai/ha, read-out: Visual Growth Reduction (%) 14 Days After Application, ZEAMX
`Nc1c(Cl)c(C(=O)O)nc(-c2ccc(I)cc2)c1Cl` [Compound 173] gave a pest or weed control at 70 g/ha of 60 to 74%.

Same assay, conditions: post-emergence, 336 h, ZEAMX: maize, corn (Zea mays), application rate 140 g ai/ha, read-out: Visual Growth Reduction (%) 14 Days After Application, ZEAMX
`Nc1c(Cl)c(C(=O)O)nc(-c2ccc(I)cc2)c1Cl` [Compound 173] showed a pest or weed control at 140 g/ha of 75 to 84%.

System: not given
Test: not given
Details: not given
Work on `Nc1c(Cl)c(C(=O)O)nc(-c2ccc(I)cc2)c1Cl` [Compound 173] yielded a melting point of 188.7 to 190.3 °C.

From patent publication US9113629B2, “4-amino-6-(4-substituted-phenyl)-picolinates and 6-amino-2-(4-substituted-phenyl)-pyrimidine-4-carboxylates and their use as herbicides” (DOW AGROSCIENCES LLC, priority 2013, dated 2015)
